Laboratory results: patent US8283373B2, “Inhibitors of cytosolic phospholipase A2” (Pfizer Inc., priority 2005, dated 2012)

Experiments:
cPLA2α = target: T1, cPLA2α (Homo sapiens, UniProt P47712); assay: GLU Micelle Assay; format: biochemical
T1 sequence (P47712 1-749): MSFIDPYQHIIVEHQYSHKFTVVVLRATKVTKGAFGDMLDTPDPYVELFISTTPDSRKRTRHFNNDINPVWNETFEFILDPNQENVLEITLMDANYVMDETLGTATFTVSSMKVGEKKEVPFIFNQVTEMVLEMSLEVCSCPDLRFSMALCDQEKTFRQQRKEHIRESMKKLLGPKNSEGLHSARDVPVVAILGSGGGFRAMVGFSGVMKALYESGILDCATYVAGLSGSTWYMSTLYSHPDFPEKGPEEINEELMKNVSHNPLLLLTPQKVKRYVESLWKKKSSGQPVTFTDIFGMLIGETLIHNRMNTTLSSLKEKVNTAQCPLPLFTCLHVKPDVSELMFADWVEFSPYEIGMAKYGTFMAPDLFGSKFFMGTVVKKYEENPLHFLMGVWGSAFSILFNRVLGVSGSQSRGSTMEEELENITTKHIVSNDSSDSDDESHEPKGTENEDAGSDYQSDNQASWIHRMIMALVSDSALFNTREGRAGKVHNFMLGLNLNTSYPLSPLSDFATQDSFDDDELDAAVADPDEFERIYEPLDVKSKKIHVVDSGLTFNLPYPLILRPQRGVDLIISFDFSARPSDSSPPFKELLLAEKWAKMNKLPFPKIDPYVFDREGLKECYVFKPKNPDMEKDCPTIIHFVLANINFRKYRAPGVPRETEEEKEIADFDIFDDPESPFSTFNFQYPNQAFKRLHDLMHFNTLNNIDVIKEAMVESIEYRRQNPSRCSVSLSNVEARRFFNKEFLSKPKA
Protocol: The assay was carried in a 96-well format using a fluorescent plate reader with a 355 nm excitation filter and a 460 nm emission filter (Lab Systems Fluoroscan II, Helsinki, Finland). The assay buffer contained 940 μM Triton X-100, 50 mM Hepes pH 7.4, 0.3 mM EDTA, 1 mM CaCl2 and 300 mM KCl. DTPC (1,2-O-tetradecyl-sn-glycero-3-phosphocholine, Avanti) at a final concentration of 120 μM was added the day of the experiment and GLU (7-Hydroxycoumarinyl-γ-linolenate, Biomol Research Lab, Inc.) at a final concentration of 90 μM was added immediately prior to each assay.
Compounds (10 μL) dissolved in DMSO were placed in duplicate wells of a black 96-well plate. Wells corresponding to the positive and negative controls contained DMSO without inhibitors. Just prior to the experiment, 200 μL assay buffer containing 90 μM GLU and 120 μM DTPC was added to all wells in the assay plate. Assay buffer (50 μL) was added to the negative, and 50 μL cPLA2α solution ([…] in assay buffer) was added to all other wells to initiate the reaction. The final concentration of enzyme was 1 μg/ml. The content of each well was mixed gently during the addition of the enzyme, and the plate was rapidly transferred to the fluorescent plate reader. The increase in fluorescence was read every 4 min for 84 min. The slope of the resulting line was determined and the inhibition was calculated using the equation below: Percent Inhibition=[1−(slope with inhibitor−slope negative control)/(slope positive control−slope negative control)]×100 Rat Whole Blood Assay

TXB2 = assay: Rat Whole Blood Assay (A23187-stimulated TXB2); format: cell-based; settings: Rattus norvegicus; A23187 5 μM
Protocol: Fresh blood was collected in heparinized tubes by cardiac puncture of male Sprague-Dawley rats. Aliquots of blood (0.6 mL) were incubated with either 6 μL solvent (DMSO), or 6 μL of test compounds at various concentrations for 15 minutes at 37° C. This was followed by incubation of the blood with 6 μL of calcium ionophore, A23187 (Sigma C-7522) diluted in DMSO for 10 min at 37° C. The final concentration of A23187 was 5 μM. DMSO (6 μL) was added in the unstimulated controls. The reactions were stopped by mixing 60 μL cold EDTA to give a final concentration of 20 mM. The blood was centrifuged at 6,500 rpm for 10 min on a microcentrifuge to obtain plasma. A 70 μL aliquot of plasma was mixed with 400 μL cold methanol for protein precipitation. After incubation at −80° C. for 30 min, the supernatant was obtained by centrifuging at 6,500 rpm for 10 min, and was assayed for TXB2 according to the manufacturer's procedure (Assay Designs, Inc.'s ELISA kit #900-002).

[1] = tested on: primary cerebellar granule neurons; assay: Oxygen-glucose deprivation (OGD) in cultured cerebellar granule neurons; format: cell-based, rat; settings: for percent cell death (lactate dehydrogenase release), Avg.: OGD 2 hours, control 14, OGD 51
Protocol: Primary cerebellar granule neurons were isolated from P5-8 rat pups. Briefly, cerebelli were collected and pooled in ice-cold phosphate buffer saline (PBS) without Ca^2+ and Mg^2+. The tissue was finely chopped and transferred to an enzymatic dissociation media containing 20 IU/ml papain in Earle's balanced salt solution (Worthington Biochemical, Freehold, N.J.) and incubated for 30 minutes at 37° C. After enzymatic dissociation, the papain solution was aspirated and the tissue mechanically triturated with a fire-polished Pasteur pipette in complete media [Neurobasal Medium with B-27 supplement (Gibco, Grand Island, N.Y.), penicillin/streptomycin, aphidicolin, glutamate, potassium chloride] containing 2,000 IU/ml DNase and 10 mg/ml ovomucoid protease inhibitor. Single-cell suspensions in complete media were plated on pre-coated poly-L-ornithine/laminin 24-well plates (Becton-Dickinson, Bedford, Mass.) at a density of
5.0×10^5 cells/well. Cells were maintained for two weeks prior to experimentation.
Cultures were treated with Compound A at various concentrations, 60 minutes before OGD. Media was removed and replaced with deoxygenated buffer in an anaerobic chamber (80% nitrogen, 10% hydrogen, 10% carbon dioxide gas mixture). Fresh Compound A, Example 34 or Example 41 was added to the cultures and maintained in the anaerobic chamber for 2 hours. At the end of the incubation, fresh media was exchanged and fresh Compound A was added. Cultures were maintained for an additional 24 hours in a normoxic incubator. Cell death was determined by measuring lactate dehydrogenase release into the media 24 hours later (Roche Biochemicals). In the table below, values are shown for the control, OGD, various concentrations of Compound A, and MK801, a NMDA receptor antagonist, which is a positive control.

O=C(O)c1ccc(CCCc2c(CCNS(=O)(=O)Cc3ccccc3-c3cccc4cccnc34)n(C(c3ccccc3)c3ccccc3)c3ccc(Cl)cc23)cc1 [Example 34, 4-{3-[5-chloro-1-(diphenylmethyl)-2-(2-{[(2-quinolin-8-ylbenzyl)sulfonyl]amino}ethyl)-1H-indol-3-yl]propyl}benzoic acid]
IC50 (cPLA2α): 16 nM | IC50 (TXB2): 30 nM | protection of cultured neurons from OGD-induced cell death [1]: effective in protecting cultured neurons from OGD-induced cell death | percent cell death (lactate dehydrogenase release), Avg. ([1]; 0.1 μM): 35% | percent cell death (lactate dehydrogenase release), Avg. ([1]; 0.3 μM): 28% | percent cell death (lactate dehydrogenase release), Avg. ([1]; 1 μM): 21% | percent cell death (lactate dehydrogenase release), Avg. ([1]; 3 μM): 18%
